Reference: article PMC8662641, “Site-Specific Labeling of Endogenous Proteins Using CoLDR Chemistry” (Journal of the American Chemical Society, 2021)
“And” between values parts separate entries of the source, which are not always exact repeats. Equal entries are not always repeated.

Legend:
BTK-1h = target: T1, BTK-1h (Homo sapiens, UniProt Q06187); assay: High-throughput screening with 1h-labeled BTK; format: binding
T1 construct: The BTK kinase domain was diluted to 2 μM in the buffer, and 2 μM 1h was added; made in house
Protocol: The collection was composed of BTK binding compounds obtained in our previous luminescence screen[37] (Data set S2). […] The resulting BTK-1h (50 μL) was added to the inhibitors.

BTK = BTK (Homo sapiens, UniProt Q06187); design: BTK kinase domain was expressed and purified as previously reported; made in house; method as in Reddi et al., J. Am. Chem. Soc. 2021, 143 (13), 4979–4992; details: ref Reddi et al., J. Am. Chem. Soc. 2021, 143 (13), 4979–4992; cited from earlier work
[1] = Dataset S2A, 200 μM compound, BTK-1h, 32 °C, 10 min
[2] = Dataset S2C, BTK-1h with inhibitor

BTK, sequence (Q06187 402-655 limits assumed): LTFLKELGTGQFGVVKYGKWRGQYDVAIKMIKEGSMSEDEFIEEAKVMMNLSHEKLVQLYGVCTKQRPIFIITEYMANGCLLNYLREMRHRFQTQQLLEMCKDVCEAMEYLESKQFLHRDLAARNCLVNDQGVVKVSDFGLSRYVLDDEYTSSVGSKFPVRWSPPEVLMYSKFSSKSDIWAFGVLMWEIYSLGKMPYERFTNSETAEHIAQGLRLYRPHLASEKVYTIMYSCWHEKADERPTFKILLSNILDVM
T1 sequence (Q06187 402-655): as the sequence (Q06187 402-655 limits assumed) above

Row | Compound | FI (650)/FI (620) (BTK-1h; [1]) | FI (BTK-1h)/FI (BTK-1h+Inhibitor) at 620 nm (BTK-1h; [1]) | BTK Inhibition reported in luminescence assay* (BTK) | FI (650)/FI (620) (BTK-1h; [2]) | FI (BTK-1h)/FI (BTK-1h+Inhibitor) at 620 nm (BTK-1h; Dataset S2B, 200 μM inhibitor added to BTK-1h (2 μm))
1 | CCCCc1oc2ccccc2c1C(=O)c1cc(I)c(OCCN(CC)CC)c(I)c1.Cl [PCM-0064561-003] | 1.028 | 1.018 | 75.5 |  | 
2 | O=c1cc(-c2ccc(O)cc2)oc2cc(O)cc(O)c12 [PCM-0064643-001] | 0.8396 | 1.036 | 63.8 |  | 
3 | N#CC(C#N)=Cc1ccc(O)c(O)c1 [PCM-0064867-001] | 0.9306 | 1.013 | 54.5 |  | 
4 | CC(C)(C)c1cc(/C=C(\C#N)C(N)=S)cc(C(C)(C)C)c1O [PCM-0064936-001] | 0.9335 | 1.037 | 82.8 |  | 
5 | COCCOC(=O)C1=C(C)NC(C)=C(C(=O)OC/C=C/c2ccccc2)C1c1cccc([N+](=O)[O-])c1 (stereo not drawn) [PCM-0065102-001] | 0.8604 | 1.035 | 59.9 |  | 
6 | Cl.Cl.Fc1ccc(C(c2ccc(F)cc2)N2CCN(C/C=C/c3ccccc3)CC2)cc1 [PCM-0065210-003] | 0.8526 | 1.036 | 87.2 |  | 
7 | Cl.O=C(c1ccc(OCCN2CCCCC2)cc1)c1c(-c2ccc(O)cc2)sc2cc(O)ccc12 [PCM-0065394-003] | 1.378 | 1.018 | 85.5 |  | 
8 | Cl.Cl.O=C1c2c(O)ccc(O)c2C(=O)c2c(NCCNCCO)ccc(NCCNCCO)c21 [PCM-0065547-003] | 1.449 | 1.019 | 51 |  | 
9 | Cl.O=C1Cc2cc(CCN3CCN(c4nsc5ccccc45)CC3)c(Cl)cc2N1 [PCM-0065598-003] | 1.0625 | 1.055 | 52.1 |  | 
10 | C[n+]1cc2c3c(ccc2c2ccc4cc5c(cc4c21)OCO5)OCO3.[Cl-] [PCM-0065605-002] | 1.399 | 1.003 | 75.7 |  | 
11 | CN(Cc1ccc(C(C)(C)C)cc1)Cc1cccc2ccccc12.Cl [PCM-0086068-001] | 0.9972 | 1.029 | 62.3 |  | 
12 | O=c1cc(-c2ccc(O)c(O)c2)oc2cc(O)cc(O)c12 [PCM-0086559-001] | 2.125 | 1.0702 | 84.8 |  | 
13 | O=C(O)c1cc(O)c2c(c1)[C@@H]([C@H]1c3cc(C(=O)O)cc(O)c3C(=O)c3c(O[C@@H]4O[C@H](CO)[C@@H](O)[C@H](O)[C@H]4O)cccc31)c1cccc(O[C@@H]3O[C@H](CO)[C@@H](O)[C@H](O)[C@H]3O)c1C2=O [PCM-0086913-003, Sennoside B] |  | 1.82 | 84.1 | 1.82 | 
14 | O=c1c(O)c(-c2ccc(O)cc2)oc2cc(O)cc(O)c12 [PCM-0087037-002] | 0.933 | 1.031 | 67.7 |  | 
15 | COC(=O)C1=C(C)NC(C)=C(C(=O)OCCN2CCN(C(c3ccccc3)c3ccccc3)CC2)C1c1cccc([N+](=O)[O-])c1.Cl.Cl (stereo not drawn) [PCM-0090281-005] | 1.357 | 1.072 | 101.2 |  | 
16 | CCOc1nc2cccc(C(=O)OC(C)OC(=O)OC3CCCCC3)c2n1Cc1ccc(-c2ccccc2-c2nn[nH]n2)cc1 (stereo not drawn) [PCM-0090385-001] | 0.8568 | 1.076 | 53.7 |  | 
17 | COc1cc2c(Nc3ccc(NC(=O)c4ccccc4)cc3)ncnc2cc1OCCCN1CCOCC1 [PCM-0094881-002] | 1.089 | 1.079 | 77.9 |  | 
18 | NCC(=O)Nc1ccc(-n2nc(C(F)(F)F)cc2-c2ccc3c(ccc4ccccc43)c2)cc1 [PCM-0094886-003] | 1.037 | 1.095 | 70.3 |  | 
19 | CO[C@@H](C(=O)N1Cc2[nH]nc(NC(=O)c3ccc(N4CCN(C)CC4)cc3)c2C1)c1ccccc1 [PCM-0094888-003] | 1.661 | 1.3808 | 85.5 |  | 
20 | CN(C)C/C=C/C(=O)Nc1cc2c(Nc3ccc(F)c(Cl)c3)ncnc2cc1O[C@H]1CCOC1 [PCM-0094907-003] | 0.9254 | 1.084 | 84.8 |  | 

Row | Compound | FI (650)/FI (620) (BTK-1h; [1]) | FI (BTK-1h)/FI (BTK-1h+Inhibitor) at 620 nm (BTK-1h; [1]) | BTK Inhibition reported in luminescence assay* (BTK) | FI (650)/FI (620) (BTK-1h; [2]) | FI (BTK-1h)/FI (BTK-1h+Inhibitor) at 620 nm (BTK-1h; Dataset S2B, 200 μM inhibitor added to BTK-1h (2 μm))
21 | CC(O)C(=O)O.CN1CCN(c2ccc3nc(-c4c(N)c5c(F)cccc5[nH]c4=O)[nH]c3c2)CC1.O [PCM-0094915-004] | 1.048 and 1.073 | 1.015 and 1.028 | 53.8 |  | 
22 | COc1cc2nccc(Oc3ccc(NC(=O)C4(C(=O)Nc5ccc(F)cc5)CC4)cc3)c2cc1OC [PCM-0094920-004] | 1.097 and 1.08 | 1.121 and 1.125 | 123.4 |  | 
23 | COc1cc2nccc(Oc3ccc(NC(=O)Nc4cc(C)on4)c(Cl)c3)c2cc1OC [PCM-0094927-002] | 1.123 | 1.05 | 84.1 |  | 
24 | O=C(Nc1c[nH]nc1-c1nc2ccc(CN3CCOCC3)cc2[nH]1)NC1CC1 [PCM-0094942-002, AT9283] | 2.2858 | 1.798 | 93.8 | 1.798 | 
25 | O=C(Nc1ccc(OC(F)(F)F)cc1)c1sccc1NCc1ccnc2ccccc12 [PCM-0094951-002] | 1.167 | 1.045 | 90.3 |  | 
26 | CS(=O)(=O)O.O=C(Nc1cccc(Cl)c1)Nc1ncc(CCNc2ncnc3ccsc23)s1 [PCM-0094983-002] | 1.066 | 1.085 | 73.1 |  | 
27 | C=CC(=O)Nc1cccc(Oc2nc(Nc3ccc(N4CCN(C)CC4)cc3)ncc2Cl)c1 [PCM-0095023-002] | 1.149 | 1.02 | 91.7 |  | 
28 | Cc1nc(N)sc1-c1ccnc(Nc2ccc(N3CCOCC3)cc2)n1 [PCM-0095025-002] | 1.274 | 1.071 | 57.2 |  | 
29 | C=CC(=O)Nc1cccc(Oc2nc(Nc3ccc(N4CCN(C)CC4)cc3OC)ncc2Cl)c1 [PCM-0095043-002] | 0.9704 | 1.038 | 89 |  | 
30 | O=C(NCCCNc1nc(Nc2cccc(NC(=O)N3CCCC3)c2)ncc1I)c1cccs1 [PCM-0095061-002] | 1.86 | 1.055 | 60 |  | 
31 | CCOc1cc2ncc(C#N)c(Nc3ccc(F)c(Cl)c3)c2cc1NC(=O)/C=C/CN(C)C [PCM-0095063-002] | 0.9721 | 1.036 | 96.6 |  | 
32 | NC(=O)Nc1cc(-c2cccc(F)c2)sc1C(=O)N[C@H]1CCCNC1 [PCM-0095092-003] | 1.105 | 1.137 | 86.9 |  | 
33 | CCCCCCCCCCCCc1ccc(S(=O)(=O)Nc2nncs2)cc1 [PCM-0095111-002] | 1.107 | 1.042 | 53.8 |  | 
34 | CCc1cccc(CC)c1NC(=O)N1Cc2[nH]nc(NC(=O)c3ccc(N4CCN(C)CC4)cc3)c2C1 [PCM-0095127-002] | 1.117 | 1.096 | 65.5 |  | 
35 | Nc1cccc(-c2cc3c(Oc4cccc(O)c4)ncnc3[nH]2)c1 [PCM-0095147-003] | 1.616 | 1.107 | 82.1 |  | 
36 | Cc1[nH]c(/C=C2\C(=O)Nc3ccccc32)c(C)c1CCC(=O)O [PCM-0095149-002] | 0.9795 | 1.036 | 52.4 |  | 
37 | O=C(Nc1cccc2c(=O)cc(-c3nn[nH]n3)oc12)c1ccc(OCCCCc2ccccc2)cc1 [PCM-0095155-002] | 1.503 | 1.506 | 73.8 |  | 
38 | Cl.Cl.Cl.O[C@@H](COc1cccc2ncccc12)CN1CCN(C2c3ccccc3[C@@H]3[C@H](c4ccccc42)C3(F)F)CC1 (stereo partly drawn) [PCM-0095161-003] | 0.9335 | 1.115 | 102.7 |  | 
39 | Cc1ccc(C(=O)Nc2ccc(CN3CCN(C)CC3)c(C(F)(F)F)c2)cc1C#Cc1cnc2cccnn12 [PCM-0095174-003] | 1.022 | 1.075 | 92.4 |  | 
40 | CC#CC(=O)N1CC[C@@H](n2c(=O)n(-c3ccc(Oc4ccccc4)cc3)c3c(N)ncnc32)C1 [PCM-0215519-001, ONO-4059] |  | 2.544 |  |  | 4.404
